Where two headings read alike, the source gives them in different places.
What was measured:
[1] = tested on: PDAC053T; test: Cell viability (CellTiter-Blue), IC50 on PDAC053T; type: cell-based, human; details: for IC50: PDAC053T, 72 h treatment, CellTiter-Blue
Protocol: PDAC053T cells were a generous gift from Juan Iovanna (INSERM) and cultured in serum-free ductal medium as published before (Gastroenterology. 2004, 127(1):250-260). Liproxstatin-1 (Sigma Aldrich, Cat #SML1414) was used at a concentration of 1 μM.

[2] = tested on: HMLER CD44^high/CD24^low cells; test: IC50 on HMLER CD44high/CD24low cells (breast cancer stem cell model); type: cell-based, human; details: mesenchymal state
Source text: (§1) The inventors also evaluated the biological activity of prodrugs and parent structures against transformed human mammary epithelial HMLER CD44^high/CD24^low cells, a model of human breast cancer stem cells stable in the mesenchymal state, and against control epithelial HMLER CD44^low/CD24^high cells.

[3] = tested on: PDAC090T; test: Cell viability (CellTiter-Blue), IC50 on PDAC090T; type: cell-based, human; details: 72 h treatment
Protocol: (§2) Cell viability was evaluated by plating 4000 cells/well in 96-well plates using CellTiter-Blue viability assay according to the manufacturer's protocol. […] CellTiter-Blue reagent (Promega, G8081) was added after 72 h treatment and cells were incubated for 2 h before recording fluorescence intensities (ex. 560 nm; em. 590 nm) using a Perkin Elmer Wallac 1420 Victor2 Microplate Reader.

[4] = tested on: PDAC030T; test: Cell viability (CellTiter-Blue), IC50 on PDAC030T; type: cell-based, human; details: 72 h treatment
Protocol: as §2

[5] = tested on: MCF10A; test: IC50 on nontumorigenic epithelial breast cell MCF10A; details: for toxicity toward nontumorigenic epithelial cells compared with respective parent compound: in words, versus parent compound
Protocol: as §2
In addition to the above distinct patient-derived pancreatic ductal adenocarcinoma (PDAC) cell lines, the compounds were also evaluated against nontumorigenic epithelial breast cell MCF10A.

[6] = tested on: PDAC211T; test: Cell viability (CellTiter-Blue), IC50 on PDAC211T; type: cell-based, human; details: 72 h treatment
Protocol: as §2

[7] = tested on: HMLER CD44^low/CD24^high cells; test: IC50 on control epithelial HMLER CD44low/CD24high cells; type: cell-based, human
Source text: as §1

[8] = tested on: PDAC085T; test: Cell viability (CellTiter-Blue), IC50 on PDAC085T; type: cell-based, human; details: 72 h treatment
Protocol: as §2

[9] = MCF10A nontumorigenic epithelial breast cell

Row | Molecule | IC50 [1] | IC50 [2] | IC50 [3] | IC50 [4] | IC50 [5, 9] | IC50 [6] | IC50 [7] | IC50 [8] | IC50 ([1]; Homo sapiens) | IC50 ([2]; Homo sapiens) | IC50 ([3]; Homo sapiens) | IC50 ([4]; Homo sapiens) | IC50 ([5]; Homo sapiens, MCF-10A) | IC50 ([6]; Homo sapiens) | IC50 ([7]; Homo sapiens) | IC50 ([8]; Homo sapiens) | toxicity toward nontumorigenic epithelial cells compared with respective parent compound [5] | potency compared with Nar-AM23 ([1]; PDAC053T cells, in words)
1 | C#CCN[C@@H]1C=C[C@]2(O[C@H]([C@@H](CC)C(=O)[C@@H](C)[C@@H](O)[C@H](C)C3O[C@@H](C(CC)C(=O)OC)CC[C@@H]3C)[C@@H](C)C[C@H]2C)O[C@@]12CC[C@@](C)([C@H]1CC[C@](O)(CC)[C@H](C)O1)O2 (some centres unmarked) [AM9, C1 Methyl Ester of Ironomycin, reference compound] | 7460 nM | 13200 nM | 5890 nM | 5670 nM | 12200 nM | 5010 nM | 15200 nM | 8880 nM | – | – | – | – | – | – | – | – | – | –
2 | C[C@H]1[C@@H](O)O[C@@H]2O[C@@]3(C)CC[C@H]4[C@H](C)CC[C@@H]1[C@@]24OO3 [DHA, dihydroartemisinin, reference compound] | – | – | – | – | – | – | – | – | > 50000 nM | 2850 nM | 35400 nM | 8080 nM | 5450 nM | 10300 nM | 14200 nM | 21600 nM | – | –
3 | C#CCN[C@@H]1C=C[C@]2(O[C@H]([C@@H](CC)C(=O)[C@@H](C)[C@@H](O)[C@H](C)[C@@H]3O[C@@H]([C@@H](CC)C(=O)O)CC[C@@H]3C)[C@@H](C)C[C@H]2C)O[C@@]12CC[C@@](C)([C@H]1CC[C@](O)(CC)[C@H](C)O1)O2 [Ironomycin, reference compound] | 2600 nM | 160 nM | 630 nM | 2670 nM | 120 nM | 180 nM | 1790 nM | 720 nM | – | – | – | – | – | – | – | – | – | –
4 | CC[C@@H](C(=O)[C@@H](C)[C@@H](O)[C@H](C)[C@@H]1O[C@@H]([C@@H](CC)C(=O)OC2O[C@@H]3O[C@]4(C)CC[C@H]5[C@H](C)CC[C@@H]([C@H]2C)[C@@]35OO4)CC[C@@H]1C)[C@H]1O[C@]2(C=C[C@@H](O)[C@]3(CC[C@@](C)([C@H]4CC[C@](O)(CC)[C@H](C)O4)O3)O2)[C@H](C)C[C@@H]1C (some centres unmarked) [MA-I-023, Salinomycin-dihydroartemisinin prodrug] | – | – | – | – | – | – | – | – | 3880 nM | 480 nM | 4530 nM | 750 nM | – | 3130 nM | 820 nM | 3320 nM | – | –
5 | C#CCN[C@@H]1C=C[C@]2(O[C@H]([C@@H](CC)C(=O)[C@@H](C)[C@@H](O)[C@H](C)[C@@H]3O[C@@H]([C@@H](CC)C(=O)OC4O[C@@H]5O[C@]6(C)CC[C@H]7[C@H](C)CC[C@@H]([C@H]4C)[C@@]57OO6)CC[C@@H]3C)[C@@H](C)C[C@H]2C)O[C@@]12CC[C@@](C)([C@H]1CC[C@](O)(CC)[C@H](C)O1)O2 (some centres unmarked) [MA-I-062, Ironomycin-dihydroartemisinin prodrug] | – | – | – | – | – | – | – | – | 1790 nM | 160 nM | 2190 nM | 500 nM | 2030 nM | 100 nM | 480 nM | 1170 nM | less toxic | –
6 | CC[C@@H](C(=O)OC1O[C@@H]2O[C@]3(C)CC[C@H]4[C@H](C)CC[C@@H]([C@H]1C)[C@@]24OO3)[C@@H]1O[C@@H]([C@@H](C)[C@H](O)[C@H](C)C(=O)[C@H](CC)[C@H]2O[C@]3(C=C[C@@H](O)[C@]4(CC[C@@](C)([C@H]5CC[C@](O)(CC)[C@H](C)O5)O4)O3)[C@H](C)C[C@@H]2C)[C@@H](C)C[C@@H]1C (some centres unmarked) [MA-I-081, narasin-dihydroartemisinin prodrug] | – | – | – | – | – | – | – | – | 540 nM | 190 nM | 740 nM | 90 nM | – | 450 nM | 500 nM | 440 nM | – | –
7 | CC[C@@H](C(=O)OC1O[C@@H]2O[C@]3(C)CC[C@H]4[C@H](C)CC[C@@H]([C@H]1C)[C@@]24OO3)[C@@H]1O[C@@H]([C@@H](C)[C@H](O)[C@H](C)C(=O)[C@H](CC)[C@H]2O[C@]3(C=C[C@@H](NC4CC4)[C@]4(CC[C@@](C)([C@H]5CC[C@](O)(CC)[C@H](C)O5)O4)O3)[C@H](C)C[C@@H]2C)[C@@H](C)C[C@@H]1C (some centres unmarked) [MA-I-095, C20-cyclopropylaminonarasin-dihydroartemisinin prodrug] | – | – | – | – | – | – | – | – | 90 nM | 760 nM | 180 nM | 120 nM | 5240 nM | 490 nM | 1960 nM | 70 nM | less toxic | more potent
8 | C#CCN[C@H]1C=C[C@]2(O[C@H]([C@@H](CC)C(=O)[C@@H](C)[C@@H](O)[C@H](C)[C@@H]3O[C@@H]([C@@H](CC)C(=O)OC4O[C@@H]5O[C@]6(C)CC[C@H]7[C@H](C)CC[C@@H]([C@H]4C)[C@@]57OO6)CC[C@@H]3C)[C@@H](C)C[C@H]2C)O[C@@]12CC[C@@](C)([C@H]1CC[C@](O)(CC)[C@H](C)O1)O2 (some centres unmarked) [MA-I-096] | – | – | – | – | – | – | – | – | 520 nM | 200 nM | 690 nM | 90 nM | 1370 nM | 330 nM | 360 nM | 360 nM | – | –
9 | CC[C@@H](C(=O)O)[C@@H]1O[C@@H]([C@@H](C)[C@H](O)[C@H](C)C(=O)[C@H](CC)[C@H]2O[C@]3(C=C[C@@H](O)[C@]4(CC[C@@](C)([C@H]5CC[C@](O)(CC)[C@H](C)O5)O4)O3)[C@H](C)C[C@@H]2C)[C@@H](C)C[C@@H]1C [Narasin] | – | – | – | – | – | – | – | – | 2000 nM | 450 nM | 1160 nM | 1180 nM | 790 nM | 730 nM | 2960 nM | 500 nM | – | –
10 | CC[C@@H](C(=O)[C@@H](C)[C@@H](O)[C@H](C)[C@@H]1O[C@@H]([C@@H](CC)C(=O)O)CC[C@@H]1C)[C@H]1O[C@]2(C=C[C@@H](O)[C@]3(CC[C@@](C)([C@H]4CC[C@](O)(CC)[C@H](C)O4)O3)O2)[C@H](C)C[C@@H]1C [Salinomycin] | – | – | – | – | – | – | – | – | 4500 nM | 1380 nM | 2660 nM | 1610 nM | 1130 nM | 1290 nM | 4360 nM | 1560 nM | – | –
11 | C20-cyclopropylaminosalinomycin [AM23, reference compound] | 830 nM | 10 nM | 210 nM | 110 nM | 300 nM | 40 nM | 500 nM | 360 nM | – | – | – | – | – | – | – | – | – | –
12 | C20-cyclopropyloaminonarasin [Nar-AM23] | 200 nM | 10 nM | 320 nM | 60 nM | 100 nM | 50 nM | 450 nM | 40 nM | – | – | – | – | – | – | – | – | – | –
13 | C20-epi-ironomycin [Epi-AM5] | 2170 nM | 1800 nM | 4160 nM | 2870 nM | 1340 nM | 1480 nM | 11800 nM | 670 nM | – | – | – | – | – | – | – | – | – | –
14 | C20-propargyloaminonarasin [Nar-AM5] | 880 nM | 110 nM | 800 nM | 220 nM | 220 nM | 220 nM | 1080 nM | 120 nM | – | – | – | – | – | – | – | – | – | –

From patent US20250250285A1, “IRON-ACTIVABLE NITROGEN-CONTAINING DERIVATIVES OF SALINOMYCIN AND NARASIN, SYNTHESIS AND USE FOR THE TREATMENT OF CANCERS” (Centre National de la Recherche Scientifique, priority 2021, published 2025)
